Experimental data published in PubChem BioAssay AID1963961 (Molecular Pharmacology Branch, DTP, NCI, 2024).

System: K98450-129-R-PDC multicell spheroids, viability
Assay: Anticancer human tumor K98450-129-R-PDC patient-derived colon adenocarcinoma cell line growth inhibition [PI3K]
Settings: for viability, T/C: stronger effect = lower value
Summary of the method: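 We assembled tumor spheroids that included a stromal compartment of HUVEC and MSCs, then exposed them to targeted agents alone and together with PI3K pathway inhibitors. Concentration series descended by half-log from clinically achievable Cmax levels. Viability served as the endpoint.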

[1] = curve of first compound, second compound 0.00316 µM
[2] = curve of first compound, second compound 0.01 µM
[3] = curve of first compound, second compound 0.0316 µM
[4] = curve of first compound, second compound 0.1 µM
[5] = curve of first compound, second compound 0.316 µM
[6] = curve of first compound, second compound 1 µM
[7] = second compound 0.00316 µM, first compound 0.0316 µM
[8] = second compound 0.00316 µM, first compound 0.1 µM
[9] = second compound 0.00316 µM, first compound 0.316 µM
[10] = second compound 0.00316 µM, first compound 1 µM
[11] = second compound 0.00316 µM, first compound 3.16 µM
[12] = second compound 0.00316 µM, first compound 10 µM
[13] = second compound 0.01 µM, first compound 0.0316 µM
[14] = second compound 0.01 µM, first compound 0.1 µM
[15] = second compound 0.01 µM, first compound 0.316 µM
[16] = second compound 0.01 µM, first compound 1 µM
[17] = second compound 0.01 µM, first compound 3.16 µM
[18] = second compound 0.01 µM, first compound 10 µM
[19] = second compound 0.0316 µM, first compound 0.0316 µM
[20] = second compound 0.0316 µM, first compound 0.1 µM
[21] = second compound 0.0316 µM, first compound 0.316 µM
[22] = second compound 0.0316 µM, first compound 1 µM
[23] = second compound 0.0316 µM, first compound 3.16 µM
[24] = second compound 0.0316 µM, first compound 10 µM
[25] = second compound 0.1 µM, first compound 0.0316 µM
[26] = second compound 0.1 µM, first compound 0.1 µM
[27] = second compound 0.1 µM, first compound 0.316 µM
[28] = second compound 0.1 µM, first compound 1 µM
[29] = second compound 0.1 µM, first compound 3.16 µM
[30] = second compound 0.1 µM, first compound 10 µM
[31] = second compound 0.316 µM, first compound 0.0316 µM
[32] = second compound 0.316 µM, first compound 0.1 µM
[33] = second compound 0.316 µM, first compound 0.316 µM
[34] = second compound 0.316 µM, first compound 1 µM
[35] = second compound 0.316 µM, first compound 3.16 µM
[36] = second compound 0.316 µM, first compound 10 µM
[37] = second compound 1 µM, first compound 0.0316 µM
[38] = second compound 1 µM, first compound 0.1 µM
[39] = second compound 1 µM, first compound 0.316 µM
[40] = second compound 1 µM, first compound 1 µM
[41] = second compound 1 µM, first compound 3.16 µM
[42] = second compound 1 µM, first compound 10 µM
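Note: spheroids exposed to agents for seven days before read-out.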

Q: What does the source list for CNC(=O)c1ccc(N2C(=S)N(c3ccc(C#N)c(C(F)(F)F)c3)C(=O)C2(C)C)cc1F + COc1c(OCCCN2CCOCC2)ccc2c3n(c(=NC(=O)c4cnc(N)nc4)nc12)CCN3?
A: IC50 [1]: > 10 µM; IC50 [2]: > 10 µM; IC50 [3]: > 10 µM; IC50 [4]: > 10 µM; IC50 [5]: > 10 µM; IC50 [6]: > 10 µM; viability, T/C [7]: 108%; viability, T/C [8]: 102%; viability, T/C [9]: 88.7%; viability, T/C [10]: 97.1%; viability, T/C [11]: 108%; viability, T/C [12]: 101%; viability, T/C [13]: 98.6%; viability, T/C [14]: 107%; viability, T/C [15]: 80.1%; viability, T/C [16]: 77.8%; viability, T/C [17]: 100%; viability, T/C [18]: 98.8%; viability, T/C [19]: 96.4%; viability, T/C [20]: 96.9%; viability, T/C [21]: 84.4%; viability, T/C [22]: 81.5%; viability, T/C [23]: 95.7%; viability, T/C [24]: 68.1%; viability, T/C [25]: 67.1%; viability, T/C [26]: 83.2%; viability, T/C [27]: 72.6%; viability, T/C [28]: 77%; viability, T/C [29]: 78.7%; viability, T/C [30]: 70.1%; viability, T/C [31]: 67.4%; viability, T/C [32]: 65.6%; viability, T/C [33]: 73.5%; viability, T/C [34]: 58.5%; viability, T/C [35]: 79.1%; viability, T/C [36]: 39.8%; viability, T/C [37]: 43.6%; viability, T/C [38]: 58.4%; viability, T/C [39]: 54.2%; viability, T/C [40]: 50.1%; viability, T/C [41]: 57.2%; viability, T/C [42]: 65.5%

Q: Which results are given for Cc1nc(NC(=O)N2CCCC2C(N)=O)sc1-c1ccnc(C(C)(C)C(F)(F)F)c1 (centres undefined)?
A: viability, T/C (compound 0.0316 µM): 104% [middle of 8 runs]; viability, T/C (compound 0.1 µM): 103% [middle of 8 runs]; viability, T/C (compound 0.316 µM): 102% [middle of 8 runs]; viability, T/C (compound 1 µM): 99.1% [middle of 8 runs]; viability, T/C (compound 3.16 µM): 93.5% [middle of 8 runs]; viability, T/C (compound 10 µM): 75.9% [middle of 8 runs]; IC50 (compound alone, run of 04/24/2023): > 10 µM

Q: Which results are given for CC(Cn1ccc(-c2ccc(C#N)c(Cl)c2)n1)NC(=O)c1cc(C(C)O)[nH]n1 (centres undefined) + CC(Nc1ncnc2nc[nH]c12)c1cc2cccc(Cl)c2c(=O)n1-c1ccccc1?
A: IC50 [3]: > 10 µM; IC50 [4]: > 10 µM; IC50 [5]: > 10 µM; IC50 [6]: > 10 µM; IC50 (curve of first compound, second compound 3.16 µM): > 10 µM; IC50 (curve of first compound, second compound 10 µM): > 10 µM; viability, T/C [19]: 119%; viability, T/C [20]: 101%; viability, T/C [21]: 87.3%; viability, T/C [22]: 92.5%; viability, T/C [23]: 102%; viability, T/C [24]: 101%; viability, T/C [25]: 106%; viability, T/C [26]: 113%; viability, T/C [27]: 107%; viability, T/C [28]: 96.5%; viability, T/C [29]: 98.5%; viability, T/C [30]: 103%; viability, T/C [31]: 99.5%; viability, T/C [32]: 109%; viability, T/C [33]: 92.5%; viability, T/C [34]: 92.3%; viability, T/C [35]: 104%; viability, T/C [36]: 99%; viability, T/C [37]: 94.7%; viability, T/C [38]: 95.2%; viability, T/C [39]: 91.7%; viability, T/C [40]: 99.1%; viability, T/C [41]: 93.4%; viability, T/C [42]: 88%; viability, T/C (second compound 3.16 µM, first compound 0.0316 µM): 72.7%; viability, T/C (second compound 3.16 µM, first compound 0.1 µM): 86.1%; viability, T/C (second compound 3.16 µM, first compound 0.316 µM): 86.7%; viability, T/C (second compound 3.16 µM, first compound 1 µM): 80.3%; viability, T/C (second compound 3.16 µM, first compound 3.16 µM): 103%; viability, T/C (second compound 3.16 µM, first compound 10 µM): 84%; viability, T/C (second compound 10 µM, first compound 0.0316 µM): 84.1%; viability, T/C (second compound 10 µM, first compound 0.1 µM): 87.4%; viability, T/C (second compound 10 µM, first compound 0.316 µM): 83%; viability, T/C (second compound 10 µM, first compound 1 µM): 88.7%; viability, T/C (second compound 10 µM, first compound 3.16 µM): 81.8%; viability, T/C (second compound 10 µM, first compound 10 µM): 84.8%

Q: How did the IC50 [1] turn out when C#Cc1c(F)ccc2cc(O)cc(-c3ncc4c(N5CC6CCC(C5)N6)nc(OCC56CCCN5CC(F)C6)nc4c3F)c12 (centres undefined) + COc1c(OCCCN2CCOCC2)ccc2c3n(c(=NC(=O)c4cnc(N)nc4)nc12)CCN3 was run?
A: > 10 µM

Q: And the IC50 [2]?
A: > 10 µM

Q: And the IC50 [3]?
A: > 10 µM

Q: What about the IC50 [4] of the same molecule?
A: > 10 µM

Q: What about the IC50 [5] of the same molecule?
A: > 10 µM

Q: What about the IC50 [6] of the same molecule?
A: 2.44 µM

Q: What about the viability, T/C [7] of the same molecule?
A: 114%

Q: What about the viability, T/C [8] of the same molecule?
A: 108%

Q: And the viability, T/C [9]?
A: 110%

Q: And the viability, T/C [10]?
A: 90%

Q: What about the viability, T/C [11] of the same molecule?
A: 89.1%

Q: What about the viability, T/C [12] of the same molecule?
A: 81.7%

Q: And the viability, T/C [13]?
A: 122%

Q: And the viability, T/C [14]?
A: 113%

Q: And the viability, T/C [15]?
A: 99.9%

Q: What about the viability, T/C [16] of the same molecule?
A: 101%

Q: What about the viability, T/C [17] of the same molecule?
A: 100%

Q: And the viability, T/C [18]?
A: 79.5%

Q: What about the viability, T/C [19] of the same molecule?
A: 91.6%

Q: What about the viability, T/C [20] of the same molecule?
A: 101%

Q: What about the viability, T/C [21] of the same molecule?
A: 76%

Q: And the viability, T/C [22]?
A: 81.7%

Q: What about the viability, T/C [23] of the same molecule?
A: 85.6%

Q: And the viability, T/C [24]?
A: 74.3%

Q: What about the viability, T/C [25] of the same molecule?
A: 64%

Q: And the viability, T/C [26]?
A: 65.7%

Q: What about the viability, T/C [27] of the same molecule?
A: 80.8%

Q: What about the viability, T/C [28] of the same molecule?
A: 71%

Q: What about the viability, T/C [29] of the same molecule?
A: 75.8%

Q: And the viability, T/C [30]?
A: 64.3%

Q: What about the viability, T/C [31] of the same molecule?
A: 60.8%

Q: What about the viability, T/C [32] of the same molecule?
A: 58%

Q: And the viability, T/C [33]?
A: 67.3%

Q: What about the viability, T/C [34] of the same molecule?
A: 62.6%

Q: And the viability, T/C [35]?
A: 49.1%

Q: What about the viability, T/C [36] of the same molecule?
A: 47.9%

Q: What about the viability, T/C [37] of the same molecule?
A: 54.6%

Q: What about the viability, T/C [38] of the same molecule?
A: 66%

Q: What about the viability, T/C [39] of the same molecule?
A: 53.9%

Q: What about the viability, T/C [40] of the same molecule?
A: 51.2%

Q: What about the viability, T/C [41] of the same molecule?
A: 50.9%

Q: And the viability, T/C [42]?
A: 25.8%

Q: Which results are given for Cn1ncnc1[C@H]1c2n[nH]c(=O)c3cc(F)cc(c23)N[C@@H]1c1ccc(F)cc1?
A: viability, T/C (compound 0.000316 µM): 104% [middle of 4 runs]; viability, T/C (compound 0.001 µM): 95% [middle of 4 runs]; viability, T/C (compound 0.00316 µM): 103% [middle of 4 runs]; viability, T/C (compound 0.0316 µM): 104% [middle of 4 runs]; viability, T/C (compound 0.1 µM): 95.2% [middle of 4 runs]; IC50 (curve of compound): > 0.1 µM
